Results: patent publication EP0358766A1, “METHOD OF STERILIZING PLANT ANTHERS” (VSESOJUZNY NAUCHNO-ISSLEDOVATELSKY INST. SELSKOKHOZYAISTV. …, priority 1988, dated 1989)

System: diploidem Roggen Voskhod 2
Assay: Field test of gametocidal activity, diploid rye Voskhod 2
Assay type: in vivo
Details: period V, 1% aqueous emulsion, 10 kg/ha in 1000 l water
Source text: Die gametozide Aktivität der erfindungsgemäßen Sterilisationsmittel war in Feldversuchen in verschiedenen bodenklimatischen Zonen mit Teilstücken von 10 m^2 Größe in dreibis viermaliger Wiederholung festgestellt. Jedes Sterilisationsmittel wurde mindenstens 5 Jahre lang geprüft.
Die Entwicklung der Perioden der Organogenese wird zytologisch überwacht. Die Behandlung von Pflanzen mit dem Sterilisationsmittel erfolgt am Anfang der fünften Periode der Organogenese nach Kupermann.
Mit dem Ährenschieben verwirklicht man die Isolierung von Hauptähren und anderen Stockwerken in Pergametbeuteln. Bei Weizen und Tritikale werden Einzelisolatoren benutzt. Bei Roggen schließt man je 1 Ähre von […] verschiedenen nebeneinander befindlichen Pflanzen unter einen gemeinsamen Isolator ein. Bei Hirse wird jede Rispe getrennt isoliert. Der Sterilitätsprozentsatz (X) für Weizen, Roggen, Tritikale und Hirse wird nach der Formel [formula] ermittelt.
Die Kornzahl in nicht isolierten Ähren von Kontrollpflanzen wird bedingt für 100 % Ansetzen bei freier Bestäubung angenommen.
Um zuverlässige Angaben zu erhalten, verwendet man 20 bis 25 Isolatoren je Wiederholung für Weizen und Tritikale, 10 bis 15 Isolatoren jeder Wiederholung für Roggen und Hirse.
Pflanzen von diploidem Roggen Voskhod 2 werden in der V. Periode der Organogenese mit einer 1%igen wäßrigen Emulsion von 1,1,3-Tribrompropan, 1,1,3-Tribrom-4-chlorbutan bzw. 1,1,2,3-Tetrabrompropan behandelt. Die Emulsion enthält 0,5 Masse% C12-C14-Kalziumalkylbenzolsulfonat und 0,01 Masse% Dimethylformamid. Der Verbrauch an Präparat beträgt 10 kg/ha bei 1000 1 Wasserdurchsatz. Die Prüfergebnisse sind in der Tabelle 14 angegeben. Die gleichen Ergebnisse sind bei der Behandlung von diploidem Roggen Voskhod 2 in der VI. Periode der Organogenese erhalten..

## BrCCC(Br)Br [Beispiel 1, 1,1,3-Tribrompropan]
  Kornzahl der Ähre bei freier Bestäubung: 48,6
  Kornzahl der Ähre unter Isolator: 0,9
  Prozentsatz der Sterilität: 98,2%
Control = 100
  Prozentsatz des Ansetzens von Samen bei freier Bestäubung: 89,0%
